{"source": "paper PMC7714403", "about": "(JCI Insight, 2020)", "key": {"CDK11, CDK8": {"tested_on": "CDK11, CDK8", "assay": "KiNativ, OCI cells live cell", "type": "cell-based, human", "conditions": "labeling site Lys2, peptide DLKPANILVMGEGPER"}, "FLT3 ITD": {"target": "FLT3 ITD (Homo sapiens, UniProt P36888, ITD)", "sequence (P36888 564-993, change not shown)": "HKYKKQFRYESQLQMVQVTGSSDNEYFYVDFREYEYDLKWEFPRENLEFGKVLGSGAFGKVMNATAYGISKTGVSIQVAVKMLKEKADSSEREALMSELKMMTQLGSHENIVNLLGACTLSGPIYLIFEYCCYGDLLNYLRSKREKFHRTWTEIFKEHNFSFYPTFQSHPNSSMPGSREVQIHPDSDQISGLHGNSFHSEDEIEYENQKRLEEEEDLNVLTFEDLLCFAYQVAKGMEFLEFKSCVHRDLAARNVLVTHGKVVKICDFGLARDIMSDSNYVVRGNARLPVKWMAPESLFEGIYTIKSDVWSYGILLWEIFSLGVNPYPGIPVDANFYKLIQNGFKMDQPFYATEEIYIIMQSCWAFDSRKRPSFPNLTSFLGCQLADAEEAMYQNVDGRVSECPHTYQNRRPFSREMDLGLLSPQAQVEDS", "assay": "Kinase assay by Reaction Biology", "type": "biochemical", "conditions": "enzymatic kinase assay"}, "ROCK1, ROCK2": {"tested_on": "ROCK1, ROCK2", "assay": "KiNativ, OCI cells live cell", "type": "cell-based, human"}, "CRK7": {"target": "CRK7 (Homo sapiens, UniProt Q9NYV4)", "assay": "KiNativ, OCI cells live cell", "type": "cell-based", "conditions": "labeling site Lys2, peptide DIKCSNILLNNSGQIK"}, "PLK1": {"target": "PLK1 (Homo sapiens, UniProt P53350)", "sequence (P53350 whole entry)": "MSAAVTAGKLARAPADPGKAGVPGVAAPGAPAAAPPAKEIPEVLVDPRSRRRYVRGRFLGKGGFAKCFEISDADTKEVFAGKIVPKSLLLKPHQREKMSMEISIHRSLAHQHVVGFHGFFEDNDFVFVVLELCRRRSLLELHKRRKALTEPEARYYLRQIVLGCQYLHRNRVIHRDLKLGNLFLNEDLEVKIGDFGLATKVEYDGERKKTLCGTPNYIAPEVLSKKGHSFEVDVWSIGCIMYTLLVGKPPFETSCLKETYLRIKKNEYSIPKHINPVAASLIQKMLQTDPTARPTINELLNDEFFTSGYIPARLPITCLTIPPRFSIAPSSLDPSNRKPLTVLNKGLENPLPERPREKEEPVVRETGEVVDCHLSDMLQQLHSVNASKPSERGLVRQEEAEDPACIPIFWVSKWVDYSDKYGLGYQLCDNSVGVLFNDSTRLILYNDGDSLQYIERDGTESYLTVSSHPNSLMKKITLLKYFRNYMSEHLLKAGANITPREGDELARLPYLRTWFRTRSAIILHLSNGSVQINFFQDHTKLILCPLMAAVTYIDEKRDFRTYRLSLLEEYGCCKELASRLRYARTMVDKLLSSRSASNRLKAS", "assay": "KiNativ, OCI cells live cell", "type": "cell-based", "conditions": "2 h"}, "MARK2": {"target": "MARK2 (Homo sapiens, UniProt Q7KZI7)", "assay": "KiNativ, OCI cells live cell", "type": "cell-based", "conditions": "2 h, labeling site Lys1, peptide […]"}, "CaMK1d": {"target": "CaMK1d (Homo sapiens, UniProt Q8IU85)", "sequence (Q8IU85 whole entry)": "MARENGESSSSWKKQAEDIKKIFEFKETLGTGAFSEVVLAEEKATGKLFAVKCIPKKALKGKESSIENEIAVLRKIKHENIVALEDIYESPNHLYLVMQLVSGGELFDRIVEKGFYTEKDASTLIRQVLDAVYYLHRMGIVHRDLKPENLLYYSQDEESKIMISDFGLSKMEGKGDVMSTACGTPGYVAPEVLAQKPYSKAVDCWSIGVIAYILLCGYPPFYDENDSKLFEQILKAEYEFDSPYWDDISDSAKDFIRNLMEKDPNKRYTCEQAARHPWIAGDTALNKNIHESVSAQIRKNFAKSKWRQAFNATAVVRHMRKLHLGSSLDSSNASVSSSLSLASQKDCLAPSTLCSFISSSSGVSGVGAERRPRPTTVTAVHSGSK", "assay": "KiNativ, OCI cells live cell", "type": "cell-based", "conditions": "2 h"}, "GCK": {"target": "T1, GCK (Homo sapiens, UniProt Q12851)", "T1 sequence (Q12851 1-820)": "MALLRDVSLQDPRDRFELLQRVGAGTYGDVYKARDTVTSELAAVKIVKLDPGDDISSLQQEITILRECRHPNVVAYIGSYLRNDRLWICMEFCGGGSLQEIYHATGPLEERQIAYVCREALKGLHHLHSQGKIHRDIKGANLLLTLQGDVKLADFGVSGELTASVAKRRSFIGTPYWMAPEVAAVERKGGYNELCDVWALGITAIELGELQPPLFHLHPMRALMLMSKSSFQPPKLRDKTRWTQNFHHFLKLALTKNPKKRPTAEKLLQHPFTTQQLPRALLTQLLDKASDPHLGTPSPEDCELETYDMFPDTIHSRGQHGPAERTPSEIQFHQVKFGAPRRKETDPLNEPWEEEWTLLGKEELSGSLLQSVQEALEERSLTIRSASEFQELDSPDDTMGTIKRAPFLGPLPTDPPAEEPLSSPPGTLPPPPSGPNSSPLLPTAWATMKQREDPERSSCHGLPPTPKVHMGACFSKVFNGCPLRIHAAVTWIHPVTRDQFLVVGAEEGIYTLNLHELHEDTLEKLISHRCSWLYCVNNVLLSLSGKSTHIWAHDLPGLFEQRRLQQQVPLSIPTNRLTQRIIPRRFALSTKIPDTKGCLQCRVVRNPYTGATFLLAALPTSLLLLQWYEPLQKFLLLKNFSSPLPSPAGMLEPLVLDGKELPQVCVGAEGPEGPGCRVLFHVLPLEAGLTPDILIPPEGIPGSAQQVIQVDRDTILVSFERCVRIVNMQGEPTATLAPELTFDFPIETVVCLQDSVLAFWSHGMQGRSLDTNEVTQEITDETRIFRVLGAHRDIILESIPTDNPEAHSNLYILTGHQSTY", "assay": "Kinase assay by Reaction Biology", "type": "biochemical", "design": "purchased Eurofins DiscoverX"}, "Wee1": {"target": "Wee1 (Homo sapiens, UniProt P30291)", "sequence (P30291 whole entry)": "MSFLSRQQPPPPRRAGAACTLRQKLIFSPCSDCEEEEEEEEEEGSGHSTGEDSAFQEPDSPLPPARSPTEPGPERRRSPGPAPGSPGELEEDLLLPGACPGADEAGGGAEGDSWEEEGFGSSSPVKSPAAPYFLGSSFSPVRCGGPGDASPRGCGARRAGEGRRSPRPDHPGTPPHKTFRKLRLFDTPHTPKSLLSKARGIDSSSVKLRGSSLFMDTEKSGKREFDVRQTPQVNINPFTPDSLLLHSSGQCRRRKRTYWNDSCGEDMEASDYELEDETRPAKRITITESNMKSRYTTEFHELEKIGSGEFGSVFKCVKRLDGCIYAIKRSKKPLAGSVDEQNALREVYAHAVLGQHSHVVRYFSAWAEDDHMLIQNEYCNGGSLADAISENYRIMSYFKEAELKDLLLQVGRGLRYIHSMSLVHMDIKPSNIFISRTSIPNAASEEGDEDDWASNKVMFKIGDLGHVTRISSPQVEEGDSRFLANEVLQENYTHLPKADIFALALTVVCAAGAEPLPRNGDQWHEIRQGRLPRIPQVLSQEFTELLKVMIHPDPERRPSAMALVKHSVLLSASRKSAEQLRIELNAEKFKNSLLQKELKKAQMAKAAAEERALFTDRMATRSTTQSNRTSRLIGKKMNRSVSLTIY", "assay": "KiNativ, OCI cells live cell", "type": "cell-based", "conditions": "2 h, labeling site Lys2, peptide […]"}, "PYK2": {"target": "PYK2 (Homo sapiens, UniProt Q14289)", "sequence (Q14289 whole entry)": "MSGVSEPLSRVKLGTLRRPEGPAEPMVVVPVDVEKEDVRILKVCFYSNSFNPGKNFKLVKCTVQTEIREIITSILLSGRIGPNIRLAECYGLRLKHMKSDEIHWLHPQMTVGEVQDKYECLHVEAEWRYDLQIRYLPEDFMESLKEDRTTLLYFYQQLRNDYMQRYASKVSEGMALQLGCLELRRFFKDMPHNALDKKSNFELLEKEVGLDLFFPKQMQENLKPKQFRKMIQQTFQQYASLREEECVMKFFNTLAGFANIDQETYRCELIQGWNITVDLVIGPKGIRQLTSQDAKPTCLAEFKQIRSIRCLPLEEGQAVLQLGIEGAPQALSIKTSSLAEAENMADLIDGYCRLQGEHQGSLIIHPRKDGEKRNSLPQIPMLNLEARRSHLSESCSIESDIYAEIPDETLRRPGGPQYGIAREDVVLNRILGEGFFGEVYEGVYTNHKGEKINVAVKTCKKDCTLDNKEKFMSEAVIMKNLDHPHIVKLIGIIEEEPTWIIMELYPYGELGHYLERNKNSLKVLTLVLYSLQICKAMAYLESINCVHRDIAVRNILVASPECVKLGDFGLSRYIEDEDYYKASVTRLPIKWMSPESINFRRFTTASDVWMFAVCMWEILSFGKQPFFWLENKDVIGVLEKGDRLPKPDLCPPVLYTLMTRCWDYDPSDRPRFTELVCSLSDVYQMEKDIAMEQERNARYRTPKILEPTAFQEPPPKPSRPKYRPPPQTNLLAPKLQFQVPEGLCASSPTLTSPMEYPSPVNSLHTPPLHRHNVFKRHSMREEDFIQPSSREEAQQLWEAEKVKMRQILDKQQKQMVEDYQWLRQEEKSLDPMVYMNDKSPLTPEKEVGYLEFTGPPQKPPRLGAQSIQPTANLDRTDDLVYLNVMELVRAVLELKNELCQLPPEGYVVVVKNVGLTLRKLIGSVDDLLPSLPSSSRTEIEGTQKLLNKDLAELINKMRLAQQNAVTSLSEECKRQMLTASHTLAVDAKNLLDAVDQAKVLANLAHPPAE", "assay": "KiNativ, OCI cells live cell", "type": "cell-based", "conditions": "2 h"}, "PIP4K2C": {"target": "T2, PIP4K2C (Homo sapiens, UniProt Q8TBX8)", "T2 sequence (Q8TBX8 1-421)": "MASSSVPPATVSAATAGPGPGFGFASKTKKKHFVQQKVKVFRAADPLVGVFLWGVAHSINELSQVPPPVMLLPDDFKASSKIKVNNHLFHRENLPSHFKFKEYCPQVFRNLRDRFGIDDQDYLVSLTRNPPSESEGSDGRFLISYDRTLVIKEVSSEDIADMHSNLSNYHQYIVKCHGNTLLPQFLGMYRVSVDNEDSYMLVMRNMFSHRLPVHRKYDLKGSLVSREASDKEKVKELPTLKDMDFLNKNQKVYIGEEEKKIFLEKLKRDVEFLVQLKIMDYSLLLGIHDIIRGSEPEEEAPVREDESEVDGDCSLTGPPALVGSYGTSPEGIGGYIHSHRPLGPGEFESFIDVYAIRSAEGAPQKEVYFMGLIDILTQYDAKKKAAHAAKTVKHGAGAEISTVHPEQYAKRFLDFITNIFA", "assay": "KiNativ, OCI cells live cell", "type": "cell-based", "conditions": "2 h, labeling site ATP"}, "RSK2 domain2": {"target": "T3, RSK2 domain2 (Homo sapiens, UniProt P51812)", "T3 construct": "RSK2 domain2", "T3 sequence (P51812 whole entry, the tested form may be a part)": "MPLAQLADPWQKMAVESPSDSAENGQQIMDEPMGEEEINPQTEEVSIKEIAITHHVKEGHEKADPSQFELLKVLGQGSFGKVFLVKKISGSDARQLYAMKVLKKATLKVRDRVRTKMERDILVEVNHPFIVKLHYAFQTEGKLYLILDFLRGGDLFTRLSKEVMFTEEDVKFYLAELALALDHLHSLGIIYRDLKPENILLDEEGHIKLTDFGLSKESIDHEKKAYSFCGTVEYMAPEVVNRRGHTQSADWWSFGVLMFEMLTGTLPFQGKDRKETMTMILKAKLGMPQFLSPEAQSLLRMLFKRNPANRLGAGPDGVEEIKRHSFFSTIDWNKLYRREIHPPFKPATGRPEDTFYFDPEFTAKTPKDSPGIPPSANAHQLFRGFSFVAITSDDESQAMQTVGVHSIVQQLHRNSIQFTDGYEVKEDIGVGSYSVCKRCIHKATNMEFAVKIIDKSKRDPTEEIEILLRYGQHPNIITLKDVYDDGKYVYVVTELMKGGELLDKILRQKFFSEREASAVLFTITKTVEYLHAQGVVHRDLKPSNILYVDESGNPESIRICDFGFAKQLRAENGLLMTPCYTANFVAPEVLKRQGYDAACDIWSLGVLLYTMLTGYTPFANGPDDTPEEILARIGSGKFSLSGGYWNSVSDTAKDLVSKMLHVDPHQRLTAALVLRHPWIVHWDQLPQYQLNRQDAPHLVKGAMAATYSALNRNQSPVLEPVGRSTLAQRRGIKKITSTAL", "assay": "KiNativ, OCI cells live cell", "type": "cell-based", "conditions": "2 h, labeling site Lys2, peptide […]"}, "CDK4": {"target": "CDK4 (Homo sapiens, UniProt P11802)", "assay": "KiNativ, OCI cells live cell", "type": "cell-based", "conditions": "2 h, labeling site Lys2, peptide […]"}, "FYN, SRC, YES": {"tested_on": "FYN, SRC, YES", "assay": "KiNativ, OCI cells live cell", "type": "cell-based, human", "conditions": "labeling site Activation Loop, peptide QGAKFPIKWTAPEAALYGR"}, "CK1g3": {"target": "CK1g3 (Homo sapiens, UniProt Q9Y6M4)", "assay": "KiNativ, OCI cells live cell", "type": "cell-based", "conditions": "labeling site Lys2, peptide DVKPENFLIGRPGNK"}, "TYK2": {"target": "T4, TYK2 (Homo sapiens, UniProt P29597)", "T4 construct": "purchased Eurofins DiscoverX", "assay": "KdELECT binding assay"}, "MARK3": {"target": "MARK3 (Homo sapiens, UniProt P27448)", "sequence (P27448 whole entry)": "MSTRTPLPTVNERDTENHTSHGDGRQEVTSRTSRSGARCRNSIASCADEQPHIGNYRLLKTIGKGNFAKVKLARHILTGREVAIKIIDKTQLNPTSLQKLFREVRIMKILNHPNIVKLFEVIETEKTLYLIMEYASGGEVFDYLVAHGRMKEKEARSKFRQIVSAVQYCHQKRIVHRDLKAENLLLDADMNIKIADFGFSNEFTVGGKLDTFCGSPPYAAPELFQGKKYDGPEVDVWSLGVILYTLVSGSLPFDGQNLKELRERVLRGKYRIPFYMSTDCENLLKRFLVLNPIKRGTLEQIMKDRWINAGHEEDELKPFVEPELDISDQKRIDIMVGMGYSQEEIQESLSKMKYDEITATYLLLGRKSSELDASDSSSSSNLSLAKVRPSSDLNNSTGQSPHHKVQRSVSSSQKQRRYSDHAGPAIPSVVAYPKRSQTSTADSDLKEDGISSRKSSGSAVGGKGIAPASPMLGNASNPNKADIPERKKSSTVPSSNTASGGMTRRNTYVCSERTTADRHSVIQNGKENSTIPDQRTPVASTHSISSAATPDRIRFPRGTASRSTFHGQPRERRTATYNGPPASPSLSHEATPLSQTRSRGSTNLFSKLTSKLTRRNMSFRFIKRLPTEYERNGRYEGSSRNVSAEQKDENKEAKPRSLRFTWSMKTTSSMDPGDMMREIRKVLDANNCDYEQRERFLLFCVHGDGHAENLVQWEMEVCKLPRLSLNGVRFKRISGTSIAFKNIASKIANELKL", "assay": "KiNativ, OCI cells live cell", "type": "cell-based", "conditions": "2 h, labeling site Lys1, peptide […]"}, "SBK": {"target": "SBK (Homo sapiens, UniProt Q52WX2)", "sequence (Q52WX2 whole entry)": "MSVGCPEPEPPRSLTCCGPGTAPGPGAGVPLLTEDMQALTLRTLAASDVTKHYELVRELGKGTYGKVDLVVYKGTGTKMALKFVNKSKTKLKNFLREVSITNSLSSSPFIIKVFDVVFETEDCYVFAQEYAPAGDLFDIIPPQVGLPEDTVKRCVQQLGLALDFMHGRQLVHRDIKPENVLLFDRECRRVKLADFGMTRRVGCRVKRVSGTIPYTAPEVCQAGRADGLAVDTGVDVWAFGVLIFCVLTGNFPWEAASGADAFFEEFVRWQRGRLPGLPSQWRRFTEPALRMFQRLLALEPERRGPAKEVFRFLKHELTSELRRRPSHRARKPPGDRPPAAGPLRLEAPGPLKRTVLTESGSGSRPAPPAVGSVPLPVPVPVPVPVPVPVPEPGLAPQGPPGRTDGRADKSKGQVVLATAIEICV", "assay": "KiNativ, OCI cells live cell", "type": "cell-based", "conditions": "2 h, labeling site Lys2, peptide […]"}, "PCTAIRE1": {"target": "PCTAIRE1 (Homo sapiens, UniProt Q00536)", "assay": "KiNativ, OCI cells live cell", "type": "cell-based", "conditions": "2 h, labeling site Lys1, peptide […]"}, "[1]": {"tested_on": "native kinases in MOLM13 cells", "assay": "KiNativ in situ kinase profiling, MOLM13 cells", "type": "cell-based, human", "conditions": "100 nM, compared with DMSO", "description": "Samples were analyzed by KiNativ in situ kinase profiling by ActivX Biosciences."}, "CHEK2": {"target": "T5, CHEK2 (Homo sapiens, UniProt O96017)", "T5 construct": "purchased Eurofins DiscoverX", "assay": "KdELECT binding assay"}}}
{"smiles": "CN1CCN(Cc2ccc(Nc3ncc(Cl)c(Nc4ccccc4S(=O)(=O)N(C)C)n3)cc2)CC1", "note": "[TP-0903]", "values": [{"measurement": "Inhibition", "setting": "CDK11, CDK8", "result": -14.9, "unit": "%"}, {"measurement": "IC50", "setting": "FLT3 ITD", "result": 3.9, "unit": "nM"}, {"measurement": "Inhibition", "setting": "ROCK1, ROCK2; labeling site Lys1, peptide VYAMKLLSK", "result": -8.5, "unit": "%"}, {"measurement": "Inhibition", "setting": "ROCK1, ROCK2; labeling site Lys2, peptide DVKPDNMLLDK", "result": -30.5, "unit": "%"}, {"measurement": "Inhibition", "setting": "CRK7", "result": 57.2, "unit": "%"}, {"measurement": "inhibition at 0.1 µM", "setting": "PLK1; labeling site Lys1, peptide CFEISDADTKEVFAGKIVPK", "result": -5, "unit": "%"}, {"measurement": "inhibition at 0.1 µM", "setting": "PLK1; labeling site Lys2, peptide DLKLGNLFLNEDLEVK", "result": -4.3, "unit": "%"}, {"measurement": "inhibition at 0.1 µM", "setting": "MARK2", "result": 37.7, "unit": "%"}, {"measurement": "inhibition at 0.1 µM", "setting": "CaMK1d; labeling site Lys1, peptide LFAVKCIPK", "result": 13, "unit": "%"}, {"measurement": "inhibition at 0.1 µM", "setting": "CaMK1d; labeling site Lys2, peptide DLKPENLLYYSQDEESK", "result": 8.8, "unit": "%"}, {"measurement": "IC50", "setting": "GCK", "result": 2.5, "unit": "nM"}, {"measurement": "inhibition at 0.1 µM", "setting": "Wee1", "result": 67.8, "unit": "%"}, {"measurement": "inhibition at 0.1 µM", "setting": "PYK2; labeling site Activation Loop, peptide YIEDEDYYKASVTR", "result": 40.6, "unit": "%"}, {"measurement": "inhibition at 0.1 µM", "setting": "PYK2; labeling site Lys1, peptide INVAVKTCK", "result": 80, "unit": "%"}, {"measurement": "inhibition at 0.1 µM", "setting": "PIP4K2C; peptide TLVIKEVSSEDIADMHSNLSNYHQYIVK", "result": -9.8, "unit": "%"}, {"measurement": "inhibition at 0.1 µM", "setting": "PIP4K2C; peptide VKELPTLKDMDFLNK", "result": -19.6, "unit": "%"}, {"measurement": "inhibition at 0.1 µM", "setting": "RSK2 domain2", "result": -18.2, "unit": "%"}, {"measurement": "inhibition at 0.1 µM", "setting": "CDK4", "result": 24.3, "unit": "%"}, {"measurement": "Inhibition", "setting": "FYN, SRC, YES", "result": 16.0, "unit": "%"}, {"measurement": "Inhibition", "setting": "CK1g3", "result": -14.0, "unit": "%"}, {"measurement": "Kd", "setting": "TYK2", "result": "< 5", "unit": "nM"}, {"measurement": "inhibition at 0.1 µM", "setting": "MARK3", "result": 47, "unit": "%"}, {"measurement": "inhibition at 0.1 µM", "setting": "SBK", "result": -0.9, "unit": "%"}, {"measurement": "inhibition at 0.1 µM", "setting": "PCTAIRE1", "result": 94.6, "unit": "%"}, {"measurement": "Inhibition of AURKA/B/C, CDK6/7, BTK, and JAK1", "setting": "[1]", "result": "moderate to strong inhibition"}, {"measurement": "Kd", "setting": "CHEK2", "result": "< 5", "unit": "nM"}]}
